Molecules are shown by their SMILES. Some results are limits rather than exact numbers.

Data on 22 compounds can be found in patent US11702404B2, “GLP-1R modulating compounds” (priority 2019, dated 2023).

Data set [1] in a line: Microsomal stability, human liver microsomes (predicted hepatic clearance). The following applies: predicted from in vitro microsomal stability data.
Another data set concerns the target GLP-1R (Homo sapiens, UniProt P43220). The data set is described as follows: GLP-1R activation: cAMP increase in CHO cells stably expressing GLP-1R. The data set is classed as cell-based. The note with it: cAMP increase, CHO cells stably expressing GLP-1R, 10 point dose response, 30 minutes incubation; read-out: EC50.

Sequence of GLP-1R (P43220 24-463): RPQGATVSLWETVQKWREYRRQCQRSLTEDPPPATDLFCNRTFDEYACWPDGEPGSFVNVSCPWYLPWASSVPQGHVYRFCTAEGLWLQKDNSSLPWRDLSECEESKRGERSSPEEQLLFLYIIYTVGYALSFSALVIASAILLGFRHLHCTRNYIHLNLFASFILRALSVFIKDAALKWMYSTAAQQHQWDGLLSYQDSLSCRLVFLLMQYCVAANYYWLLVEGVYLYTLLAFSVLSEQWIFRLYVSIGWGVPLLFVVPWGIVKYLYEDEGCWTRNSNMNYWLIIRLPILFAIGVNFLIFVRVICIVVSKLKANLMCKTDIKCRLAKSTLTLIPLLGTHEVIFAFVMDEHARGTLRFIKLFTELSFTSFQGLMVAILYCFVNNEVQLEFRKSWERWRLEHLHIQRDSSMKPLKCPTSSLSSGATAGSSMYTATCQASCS

For `COCCn1c(Cc2ccc(-c3nc(OCc4ccc(C#N)cc4F)ccc3F)c(F)c2)nc2ccc(C(=O)O)cc21` [Example 114, 2-[[4-[6-[(4-cyano-2-fluoro-phenyl)methoxy]-3-fluoro-2-pyridyl]-3-fluoro-phenyl]methyl]-3-(2-methoxyethyl)benzimidazole-5-carboxylic acid], in data set [1], the “Predicted Hepatic Clearance (Pred. Cl.)” value is recorded as 0.355 L/h/kg. Besides, the EC50 at GLP-1R was 932 nM.

Turning to `COCCn1c(Cc2ccc(-c3nc(OCc4ccc(C#N)cc4F)ccc3Cl)cc2F)nc2ccc(C(=O)O)cc21` [Example 115, 2-[[4-[3-chloro-6-[(4-cyano-2-fluoro-phenyl)methoxy]-2-pyridyl]-2-fluoro-phenyl]methyl]-3-(2-methoxyethyl)benzimidazole-5-carboxylic acid], the “Predicted Hepatic Clearance (Pred. Cl.)” value in data set [1] is reported as 0.5 L/h/kg. Further, the half-maximal effective concentration (EC50) on GLP-1R worked out at 80.9 nM.

As for `COCCn1c(Cc2ccc(-c3cccc(NC(=O)c4ccccc4)n3)cc2F)nc2ccc(C(=O)O)cc21` [Example 116, 2-(4-(6-benzamidopyridin-2-yl)-2-fluorobenzyl)-1-(2-methoxyethyl)-1H-benzo[d]imidazole-6-carboxylic acid], the “Predicted Hepatic Clearance (Pred. Cl.)” value in data set [1] is reported as 0.44 L/h/kg. Moreover, at GLP-1R, the EC50 stood at 2520 nM.

With `CC1(Cn2c(Cc3ccc(-c4cccc(OCc5ccc(C#N)cc5F)n4)cc3C#N)nc3ccc(C(=O)O)cc32)CC1` [Example 117, 2-(2-cyano-4-(6-((4-cyano-2-fluorobenzyl)oxy)pyridin-2-yl)benzyl)-1-((1-methylcyclopropyl)methyl)-1H-benzo[d]imidazole-6-carboxylic acid], the “Predicted Hepatic Clearance (Pred. Cl.)” value in data set [1] was below 0.11 L/h/kg. Moreover, the EC50 at GLP-1R worked out at 62.2 nM.

As to `COCCn1c(Cc2c(F)cc(-c3cccnc3OCc3ccc(C#N)cc3OC)cc2F)nc2ccc(C(=O)O)cc21` [Example 118, 2-(4-(2-((4-cyano-2-methoxybenzyl)oxy)pyridin-3-yl)-2,6-difluorobenzyl)-1-(2-methoxyethyl)-1H-benzo[d]imidazole-6-carboxylic acid], in data set [1], the “Predicted Hepatic Clearance (Pred. Cl.)” value is listed as 0.7 L/h/kg. At GLP-1R, the EC50 worked out at 6.01 nM.

As to `COc1cc(C#N)ccc1COc1nccc(-c2cc(F)c(Cc3nc4ccc(C(=O)O)nc4n3CC3(CF)CC3)cc2F)n1` [Example 119, 2-(4-(2-((4-cyano-2-methoxybenzyl)oxy)pyrimidin-4-yl)-2,5-difluorobenzyl)-3-((1-(fluoromethyl)cyclopropyl)methyl)-3H-imidazo[4,5-b]pyridine-5-carboxylic acid], the “Predicted Hepatic Clearance (Pred. Cl.)” value in data set [1] is listed as below 0.11 L/h/kg. The concentration giving a half-maximal response (EC50) at GLP-1R turned out to be 0.56 nM.

For the compound `O=C(O)c1ccc2nc(Cc3cc(F)c(-c4ccnc(OCc5ccc(Cl)cc5F)n4)cc3F)n(CC3(CF)CC3)c2n1` [Example 120, 2-(4-(2-((4-chloro-2-fluorobenzyl)oxy)pyrimidin-4-yl)-2,5-difluorobenzyl)-3-((1-(fluoromethyl)cyclopropyl)methyl)-3H-imidazo[4,5-b]pyridine-5-carboxylic acid], the “Predicted Hepatic Clearance (Pred. Cl.)” value in data set [1] was below 0.11 L/h/kg. In addition, the concentration giving a half-maximal response (EC50) at GLP-1R turned out to be 1.24 nM.

For `N#Cc1ccc(COc2nccc(-c3cc(F)c(Cc4nc5ccc(C(=O)O)cc5n4C[C@@H]4CCO4)c(F)c3)n2)c(F)c1` [Example 121, (S)-2-(4-(2-((4-cyano-2-fluorobenzyl)oxy)pyrimidin-4-yl)-2,6-difluorobenzyl)-1-(oxetan-2-ylmethyl)-1H-benzo[d]imidazole-6-carboxylic acid], the “Predicted Hepatic Clearance (Pred. Cl.)” value in data set [1] is listed as 0.16 L/h/kg. Also, the EC50 on GLP-1R is 0.66 nM.

In the case of `COCCn1c(Cc2ccc(-c3ccc(Cl)c(OCc4ccc(C#N)cc4F)n3)cc2F)nc2ccc(C(=O)O)cc21` [Example 122, 2-(4-(5-chloro-6-((4-cyano-2-fluorobenzyl)oxy)pyridin-2-yl)-2-fluorobenzyl)-1-(2-methoxyethyl)-1H-benzo[d]imidazole-6-carboxylic acid], the “Predicted Hepatic Clearance (Pred. Cl.)” value in data set [1] is given as below 0.11 L/h/kg. The 50% effective concentration (EC50) at GLP-1R turned out to be 30.6 nM.

With `C[C@]1(Cn2c(Cc3ccc(-c4cccc(OCc5ccc(C#N)cc5F)n4)cc3F)nc3ccc(C(=O)O)cc32)CCO1` [Example 123, (R)-2-(4-(6-((4-cyano-2-fluorobenzyl)oxy)pyridin-2-yl)-2-fluorobenzyl)-1-((2-methyloxetan-2-yl)methyl)-1H-benzo[d]imidazole-6-carboxylic acid], in data set [1], the “Predicted Hepatic Clearance (Pred. Cl.)” value is listed as 0.31 L/h/kg. Besides, the EC50 at GLP-1R stood at 3.12 nM.

For `COCCn1c(Cc2c(F)cc(-c3ncc(F)c(OCc4ccc(C#N)cc4F)n3)c(F)c2F)nc2ccc(C(=O)O)cc21` [Example 124, 2-(4-(4-((4-cyano-2-fluorobenzyl)oxy)-5-fluoropyrimidin-2-yl)-2,3,6-trifluorobenzyl)-1-(2-methoxyethyl)-1H-benzo[d]imidazole-6-carboxylic acid], in data set [1], the “Predicted Hepatic Clearance (Pred. Cl.)” value is reported as 0.19 L/h/kg. At GLP-1R, the EC50 was determined as 0.67 nM.

Consider `N#Cc1ccc(COc2nc(-c3ccc(Cc4nc5ccc(C(=O)O)cc5n4C[C@@H]4CCO4)cc3F)ccc2F)c(F)c1` [Example 125, (S)-2-(4-(6-((4-cyano-2-fluorobenzyl)oxy)-5-fluoropyridin-2-yl)-3-fluorobenzyl)-1-(oxetan-2-ylmethyl)-1H-benzo[d]imidazole-6-carboxylic acid], for which the “Predicted Hepatic Clearance (Pred. Cl.)” value in data set [1] is recorded as 0.155 L/h/kg. Moreover, the EC50 on GLP-1R was 0.34 nM.

For the compound `COCCn1c(Cc2ccc(-c3ncc(F)c(OCc4ccc(C#N)cc4F)n3)cc2F)nc2ccc(C(=O)O)cc21` [Example 126, 2-(4-(4-((4-cyano-2-fluorobenzyl)oxy)-5-fluoropyrimidin-2-yl)-2-fluorobenzyl)-1-(2-methoxyethyl)-1H-benzo[d]imidazole-6-carboxylic acid], the “Predicted Hepatic Clearance (Pred. Cl.)” value in data set [1] is 0.28 L/h/kg. On GLP-1R, the EC50 stood at 3.7 nM.

Consider `N#CCC1(Cn2c(Cc3ccc(-c4ncc(F)c(OCc5ccc(C#N)cc5F)n4)c(F)c3)nc3ccc(C(=O)O)cc32)CC1` [Example 127, 2-(4-(4-((4-cyano-2-fluorobenzyl)oxy)-5-fluoropyrimidin-2-yl)-3-fluorobenzyl)-1-((1-(cyanomethyl)cyclopropyl)methyl)-1H-benzo[d]imidazole-6-carboxylic acid], for which, in data set [1], the “Predicted Hepatic Clearance (Pred. Cl.)” value was 0.4 L/h/kg. Besides, the EC50 at GLP-1R was determined as 0.34 nM.

In the case of `N#Cc1ccc(COc2nc(-c3ccc(Cc4nc5ccc(C(=O)O)cc5n4C[C@@H]4CCO4)c(F)c3)ccc2F)c(F)c1` [Example 128, (S)-2-(4-(6-((4-cyano-2-fluorobenzyl)oxy)-5-fluoropyridin-2-yl)-2-fluorobenzyl)-1-(oxetan-2-ylmethyl)-1H-benzo[d]imidazole-6-carboxylic acid], in data set [1], the “Predicted Hepatic Clearance (Pred. Cl.)” value is below 0.11 L/h/kg. In addition, the concentration for a half-maximal effect (EC50) on GLP-1R is 0.51 nM.

Regarding `N#CCC1(Cn2c(Cc3cc(F)c(-c4nc(OCc5ccc(C#N)cc5F)ncc4F)cc3F)nc3ccc(C(=O)O)nc32)CC1` [Example 129, 2-(4-(2-((4-cyano-2-fluorobenzyl)oxy)-5-fluoropyrimidin-4-yl)-2,5-difluorobenzyl)-3-((1-(cyanomethyl)cyclopropyl)methyl)-3H-imidazo[4,5-b]pyridine-5-carboxylic acid], the “Predicted Hepatic Clearance (Pred. Cl.)” value in data set [1] is reported as 0.19 L/h/kg. In addition, the 50% effective concentration (EC50) on GLP-1R worked out at 0.7 nM.

Take `N#CCC1(Cn2c(Cc3cc(F)c(-c4ccc(F)c(OCc5ccc(C#N)cc5F)n4)cc3F)nc3ccc(C(=O)O)nc32)CC1` [Example 130, 2-(4-(6-((4-cyano-2-fluorobenzyl)oxy)-5-fluoropyridin-2-yl)-2,5-difluorobenzyl)-3-((1-(cyanomethyl)cyclopropyl)methyl)-3H-imidazo[4,5-b]pyridine-5-carboxylic acid]: the “Predicted Hepatic Clearance (Pred. Cl.)” value in data set [1] is listed as 0.33 L/h/kg. Also, the concentration for a half-maximal effect (EC50) at GLP-1R was determined as 0.11 nM.

`N#Cc1ccc(COc2nc(-c3cc(F)c(Cc4nc5c(F)cc(C(=O)O)cc5n4C[C@@H]4CCO4)cc3F)ncc2F)c(F)c1` [Example 131, (S)-2-(4-(4-((4-cyano-2-fluorobenzyl)oxy)-5-fluoropyrimidin-2-yl)-2,5-difluorobenzyl)-4-fluoro-1-(oxetan-2-ylmethyl)-1H-benzo[d]imidazole-6-carboxylic acid]: the “Predicted Hepatic Clearance (Pred. Cl.)” value in data set [1] is reported as 0.24 L/h/kg. In addition, the concentration for a half-maximal effect (EC50) at GLP-1R is 0.08 nM.

Turning to `N#Cc1ccc(COc2nc(-c3ccc(Cc4nc5c(F)cc(C(=O)O)cc5n4C[C@@H]4CCO4)c(F)c3)ccc2F)c(F)c1` [Example 132, (S)-2-(4-(6-((4-cyano-2-fluorobenzyl)oxy)-5-fluoropyridin-2-yl)-2-fluorobenzyl)-4-fluoro-1-(oxetan-2-ylmethyl)-1H-benzo[d]imidazole-6-carboxylic acid], the “Predicted Hepatic Clearance (Pred. Cl.)” value in data set [1] was 0.215 L/h/kg. For the same compound, on GLP-1R, the concentration for a half-maximal effect (EC50) came to 0.05 nM.

On to `N#CCC1(Cn2c(Cc3cc(F)c(-c4ncc(F)c(OCc5ccc(C#N)cc5F)n4)cc3F)nc3ccc(C(=O)O)cc32)CC1` [Example 133, 2-(4-(4-((4-cyano-2-fluorobenzyl)oxy)-5-fluoropyrimidin-2-yl)-2,5-difluorobenzyl)-1-((1-(cyanomethyl)cyclopropyl)methyl)-1H-benzo[d]imidazole-6-carboxylic acid], for which the “Predicted Hepatic Clearance (Pred. Cl.)” value in data set [1] is given as 0.335 L/h/kg. Besides, the EC50 on GLP-1R came to 0.26 nM.

With `N#Cc1ccc(COc2nc(-c3ccc(Cc4nc5ccc(C(=O)O)cc5n4CC4(CF)CC4)c(F)c3)ccc2F)c(F)c1` [Example 134, 2-(4-(6-((4-cyano-2-fluorobenzyl)oxy)-5-fluoropyridin-2-yl)-2-fluorobenzyl)-1-((1-(fluoromethyl)cyclopropyl)methyl)-1H-benzo[d]imidazole-6-carboxylic acid], the “Predicted Hepatic Clearance (Pred. Cl.)” value in data set [1] is on record as below 0.11 L/h/kg. Further, at GLP-1R, the EC50 was found to be 0.34 nM.

For the compound `COCCn1c(Cc2ccc(-c3cccc(OCc4ccc(C#N)c5ccoc45)n3)cc2F)nc2ccc(C(=O)O)cc21` [Example 135, 2-(4-(6-((4-cyanobenzofuran-7-yl)methoxy)pyridin-2-yl)-2-fluorobenzyl)-1-(2-methoxyethyl)-1H-benzo[d]imidazole-6-carboxylic acid], the “Predicted Hepatic Clearance (Pred. Cl.)” value in data set [1] is on record as below 0.11 L/h/kg. The EC50 at GLP-1R was 1.76 nM.
